pIC50, pKi: −log10 of the molar value. Activity calls are given as the source filed them. The rule behind the calls is not given here.
Legend:
[1] = biological target: T1, Prostaglandin D2 receptor 2 (Homo sapiens, UniProt Q9Y5Y4); assay: Displacement of [3HPGD2 from human CRTH2 receptor expressed in CHO cell membrane after 90 mins by scintillation proximity assay; format: cell membranes
T1 sequence (Q9Y5Y4 whole entry): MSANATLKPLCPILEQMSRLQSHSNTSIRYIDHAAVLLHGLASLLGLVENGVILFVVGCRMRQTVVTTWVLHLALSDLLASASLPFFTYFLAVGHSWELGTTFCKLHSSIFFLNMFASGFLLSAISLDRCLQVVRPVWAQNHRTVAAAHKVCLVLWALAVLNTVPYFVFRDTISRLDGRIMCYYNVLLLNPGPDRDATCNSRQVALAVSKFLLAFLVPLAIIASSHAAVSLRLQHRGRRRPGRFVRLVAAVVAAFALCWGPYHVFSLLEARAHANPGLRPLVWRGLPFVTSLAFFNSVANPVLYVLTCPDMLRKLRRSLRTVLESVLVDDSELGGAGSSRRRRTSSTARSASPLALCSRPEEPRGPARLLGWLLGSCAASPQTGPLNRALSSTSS

[2] = biological target: T2, Prostaglandin D2 receptor 2 (Homo sapiens) (UniProt Q9Y5Y4); assay: Agonist activity at human CRTH2 receptor expressed in CHO cell membrane assessed as induction of [35S]GTPgammaS binding at 20 uM after 30 mins by microbeta scintillation counting relative to PGD2; format: functional, cell membranes
T2 sequence (whole entry): T1 sequence (Q9Y5Y4 whole entry)

[3] = biological target: T1, Prostaglandin D2 receptor 2; assay: Antagonist activity at human CRTH2 receptor expressed in CHO cell membrane assessed as inhibition of PGD2-induced [35S]GTPgammaS binding after 30 mins by microbeta scintillation counting; format: functional, cell membranes
[4] = biological target: T2, Prostaglandin D2 receptor 2 (Homo sapiens); assay: Antagonist activity at human CRTH2 receptor expressed in CHO cell membrane assessed as inhibition of PGD2-induced [35S]GTPgammaS binding at 2 uM after 30 mins by microbeta scintillation counting relative to control; format: functional, cell membranes
[5] = Intrinsic clearance in rat liver microsomes assessed per mg protein at 1 uM up to 45 mins by LC/MS analysis; format: ADME, Microsome; settings: read-out: CLH
Cytochrome P450 2C8 = biological target: T3, Cytochrome P450 2C8 (Homo sapiens, UniProt P10632); assay: Inhibition of human recombinant CYP2C8 incubated for 15 mins prior to substrate addition measured after 30 mins by spectrophotometry; format: ADME
T3 sequence (P10632 whole entry): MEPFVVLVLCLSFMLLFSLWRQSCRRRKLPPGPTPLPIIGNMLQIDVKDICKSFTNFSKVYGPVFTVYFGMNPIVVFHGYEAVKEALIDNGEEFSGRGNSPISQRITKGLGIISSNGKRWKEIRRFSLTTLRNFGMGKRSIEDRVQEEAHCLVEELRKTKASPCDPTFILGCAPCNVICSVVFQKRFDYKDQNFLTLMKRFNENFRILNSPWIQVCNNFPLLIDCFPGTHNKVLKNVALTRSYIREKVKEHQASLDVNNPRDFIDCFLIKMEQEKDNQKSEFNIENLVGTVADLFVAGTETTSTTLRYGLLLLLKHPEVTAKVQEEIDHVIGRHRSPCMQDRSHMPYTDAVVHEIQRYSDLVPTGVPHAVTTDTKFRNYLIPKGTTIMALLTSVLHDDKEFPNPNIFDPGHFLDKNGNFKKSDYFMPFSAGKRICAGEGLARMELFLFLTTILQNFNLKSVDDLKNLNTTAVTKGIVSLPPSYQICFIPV

Cytochrome P450 2C19 = Cytochrome P450 2C19 (Homo sapiens, UniProt P33261); assay: Inhibition of human recombinant CYP2C19 incubated for 15 mins prior to substrate addition measured after 30 mins by spectrophotometry; format: ADME
[6] = Intrinsic clearance in human liver microsomes assessed per mg protein at 1 uM up to 45 mins by LC/MS analysis; format: ADME, Microsome; settings: read-out: CLH
Cytochrome P450 2C9 = Cytochrome P450 2C9 (Homo sapiens, UniProt P11712); assay: Inhibition of human recombinant CYP2C9 incubated for 15 mins prior to substrate addition measured after 30 mins by spectrophotometry; format: ADME
Sequence of Cytochrome P450 2C9 (P11712 whole entry): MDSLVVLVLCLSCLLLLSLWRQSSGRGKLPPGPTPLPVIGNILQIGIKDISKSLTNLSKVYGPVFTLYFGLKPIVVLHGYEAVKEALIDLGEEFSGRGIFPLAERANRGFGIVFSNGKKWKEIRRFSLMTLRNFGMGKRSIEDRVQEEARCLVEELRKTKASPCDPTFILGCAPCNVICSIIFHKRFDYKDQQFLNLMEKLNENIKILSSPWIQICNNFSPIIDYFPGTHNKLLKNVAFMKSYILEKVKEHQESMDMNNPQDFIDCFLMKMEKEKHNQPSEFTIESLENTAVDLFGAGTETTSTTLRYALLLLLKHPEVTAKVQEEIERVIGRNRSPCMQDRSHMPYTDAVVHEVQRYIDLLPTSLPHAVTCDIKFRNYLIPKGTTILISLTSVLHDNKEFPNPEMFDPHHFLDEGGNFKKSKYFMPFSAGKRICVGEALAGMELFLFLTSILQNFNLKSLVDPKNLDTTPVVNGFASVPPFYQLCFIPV

Sequence of Cytochrome P450 2C19 (P33261 whole entry): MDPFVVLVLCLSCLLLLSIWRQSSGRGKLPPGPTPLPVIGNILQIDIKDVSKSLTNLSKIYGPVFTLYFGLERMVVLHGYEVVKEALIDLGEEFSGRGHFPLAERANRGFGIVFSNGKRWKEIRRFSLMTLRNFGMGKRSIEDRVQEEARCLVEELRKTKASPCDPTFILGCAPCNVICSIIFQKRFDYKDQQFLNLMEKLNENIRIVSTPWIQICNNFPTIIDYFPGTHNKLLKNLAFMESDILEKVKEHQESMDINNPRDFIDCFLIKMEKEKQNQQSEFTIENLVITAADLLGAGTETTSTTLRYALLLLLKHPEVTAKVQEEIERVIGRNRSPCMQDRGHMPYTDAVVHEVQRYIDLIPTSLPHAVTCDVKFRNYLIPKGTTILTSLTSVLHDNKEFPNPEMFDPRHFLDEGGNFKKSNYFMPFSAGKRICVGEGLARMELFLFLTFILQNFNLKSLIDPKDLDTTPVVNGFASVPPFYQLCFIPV

## CCCCC(=O)N(Cc1ccc(OC)cc1)c1cc(Cl)cc(-c2nnn[nH]2)c1
[1]
  pKi: 8.44
[2]
  Emax: -10%
[3]
  pIC50: 8.00
[4]
  inhibition: 110%

## CCC(=O)N(Cc1ccc(S(=O)(=O)C(F)(F)F)cc1)c1cc(F)cc(-c2nnn[nH]2)c1
[1]
  pKi: 8.28

## CCCCC(=O)N(Cc1cccc(OC)c1)c1cccc(-c2nnn[nH]2)c1
[1]
  pKi: 7.36

## CCCCC(=O)N(Cc1ccc2c(c1)OCCO2)c1cccc(CC(=O)O)c1
[1]
  pKi: 5.37

## CCCCC(=O)N(Cc1ccc(OC)cc1)c1cc(F)cc(-c2nnn[nH]2)c1
[1]
  pKi: 8.52

## CCC(=O)N(Cc1cccc(C)c1)c1cccc(-c2nnn[nH]2)c1
[1]
  pKi: 6.24

## CS(=O)(=O)c1ccc(CN(C(=O)Cc2ccccc2)c2cc(F)cc(-c3nnn[nH]3)c2)cc1
[5]
  microsomal CLint at 1 µM: 20 µL/min/mg
Cytochrome P450 2C8
  pIC50: 7.30
[1]
  pKi: 9.05
Cytochrome P450 2C19
  pIC50: 6.77
[2]
  Emax: -10%
[6]
  microsomal CLint at 1 µM: 28 µL/min/mg
Cytochrome P450 2C9
  pIC50: 6.54
[3]
  pIC50: 8.43
[4]
  inhibition: 94%

## CCCCC(=O)N(Cc1ccc2cnccc2c1)c1cccc(-c2nnn[nH]2)c1
[1]
  pKi: 6.48

## CCC(=O)N(Cc1ccc(OC)cc1)c1cc(F)cc(-c2nnn[nH]2)c1
[1]
  pKi: 8.12

## CCCCC(=O)N(Cc1cc2ccccc2o1)c1cc(-c2nnn[nH]2)ccc1F
[1]
  pKi: 8.15

## CCC(=O)N(Cc1cccc(O)c1)c1cc(F)cc(-c2nnn[nH]2)c1
[5]
  microsomal CLint at 1 µM: 10 µL/min/mg
Cytochrome P450 2C8
  pIC50: 6.01
Cytochrome P450 2C19
  pIC50: 5.43
[2]
  Emax: -17%
[6]
  microsomal CLint at 1 µM: 55 µL/min/mg
Cytochrome P450 2C9
  pIC50: 5.70
[4]
  inhibition: 106%

## Cc1ccc(CCC(=O)N(Cc2ccc(S(C)(=O)=O)cc2)c2cc(F)cc(-c3nnn[nH]3)c2)cc1
[1]
  pKi: 8.60

## CS(=O)(=O)c1ccc(CN(C(=O)C2CCOCC2)c2cc(F)cc(-c3nnn[nH]3)c2)cc1
[1]
  pKi: 7.55

## CCC(=O)N(Cc1ccc(OC)cc1)c1cccc(-c2nnn[nH]2)c1
[1]
  pKi: 6.66

## CCC(=O)N(Cc1cccc(OC(C)C)c1)c1cc(F)cc(-c2nnn[nH]2)c1
[5]
  microsomal CLint at 1 µM: 30 µL/min/mg
Cytochrome P450 2C8
  pIC50: 6.33
[1]
  pKi: 8.19
Cytochrome P450 2C19
  pIC50: 6.05
[6]
  microsomal CLint at 1 µM: 1700 µL/min/mg
Cytochrome P450 2C9
  pIC50: 6.47

## CS(=O)(=O)c1ccc(CN(C(=O)c2ccncc2)c2cc(F)cc(-c3nnn[nH]3)c2)cc1
[1]
  pKi: 7.77

## CCCCC(=O)N(Cc1ccc2c(c1)OCCO2)c1cc(F)cc(-c2nnn[nH]2)c1
[1]
  pKi: 8.70
[2]
  Emax: -15%
[3]
  pIC50: 8.55
[4]
  inhibition: 102%

## CCC(=O)N(Cc1ccc2ccccc2n1)c1cc(F)cc(-c2nnn[nH]2)c1
[1]
  pKi: 7.25

## CCCCC(=O)N(Cc1ccc2ccccc2c1)c1cccc(-c2nnn[nH]2)c1
[1]
  pKi: 7.41

## CCCCC(=O)N(Cc1ccc2c(c1)OCCO2)c1cccc(-c2nnn[nH]2)c1
[5]
  microsomal CLint at 1 µM: 125 µL/min/mg
Cytochrome P450 2C8
  pIC50: 6.24
[1]
  pKi: 8.15
Cytochrome P450 2C19
  pIC50: 6.17
[6]
  microsomal CLint at 1 µM: > 1000 µL/min/mg
Cytochrome P450 2C9
  pIC50: 6.19

## CCC(=O)N(Cc1ccc(O)cc1)c1cc(F)cc(-c2nnn[nH]2)c1
[1]
  pKi: 7.66

## CCC(=O)N(Cc1cccc(F)c1)c1cccc(-c2nnn[nH]2)c1
[1]
  pKi: 5.85

## C#Cc1cccc(CN(C(=O)CCCC)c2cc(-c3nnn[nH]3)ccc2F)c1
[1]
  pKi: 8.00

## CCC(=O)N(Cc1cccc(OC)c1)c1cccc(-c2nnn[nH]2)c1
[1]
  pKi: 6.44

## CCC(=O)N(Cc1ccc(F)cc1)c1cccc(-c2nnn[nH]2)c1
[1]
  pKi: 5.92

## CCC(=O)N(Cc1cccc(OC)c1)c1cc(F)cc(-c2nnn[nH]2)c1
[1]
  pKi: 8.09
[2]
  Emax: -11%
[3]
  pIC50: 7.19
[4]
  inhibition: 107%

## CCCCC(=O)N(Cc1ccc2ccccc2c1)c1cc(-c2nnn[nH]2)ccc1F
[1]
  pKi: 7.74

## CCCCC(=O)N(Cc1ccc2c(c1)OCCO2)c1cc(-c2nnn[nH]2)c(F)cc1F
[1]
  pKi: 7.35

## CCCCC(=O)N(Cc1cccc(OC)c1)c1cccc(C(=O)O)c1
[1]
  pKi: 5.10

## CC(C)CC(=O)N(Cc1ccc(S(C)(=O)=O)cc1)c1cc(F)cc(-c2nnn[nH]2)c1
[5]
  microsomal CLint at 1 µM: 17 µL/min/mg
Cytochrome P450 2C8
  pIC50: 7.10
[1]
  pKi: 8.49
Cytochrome P450 2C19
  pIC50: 5.12
[2]
  Emax: inactive
[6]
  microsomal CLint at 1 µM: 17 µL/min/mg
Cytochrome P450 2C9
  pIC50: 5.77
[3]
  pIC50: 7.34
[4]
  inhibition: 85%

## CCCCC(=O)N(Cc1cccc(OC)c1)c1cc(F)cc(-c2nnn[nH]2)c1
[1]
  pKi: 8.52

## CCCC(=O)N(Cc1ccc2c(c1)OCCO2)c1cc(-c2nnn[nH]2)ccc1F
[1]
  pKi: 8.31

## CS(=O)(=O)c1ccc(CN(C(=O)c2ccccc2)c2cc(F)cc(-c3nnn[nH]3)c2)cc1
[1]
  pKi: 8.66

## CCCCC(=O)N(Cc1ccc(OC)cc1)c1cccc(-c2nnn[nH]2)c1
[5]
  microsomal CLint at 1 µM: 43 µL/min/mg
Cytochrome P450 2C8
  pIC50: 6.49
[1]
  pKi: 7.30
Cytochrome P450 2C19
  pIC50: 6.59
[6]
  microsomal CLint at 1 µM: > 1000 µL/min/mg
Cytochrome P450 2C9
  pIC50: 6.08

## CCC(=O)N(Cc1ccccc1F)c1cccc(-c2nnn[nH]2)c1
[1]
  pKi: 6.02

## CS(=O)(=O)c1ccc(CN(C(=O)C2CCCC2)c2cc(F)cc(-c3nnn[nH]3)c2)cc1
[5]
  microsomal CLint at 1 µM: 40 µL/min/mg
Cytochrome P450 2C8
  pIC50: 6.66
[1]
  pKi: 8.27
Cytochrome P450 2C19
  pIC50: 4.92
[2]
  Emax: 7%
[6]
  microsomal CLint at 1 µM: 92 µL/min/mg
Cytochrome P450 2C9
  pIC50: 5.13
[3]
  pIC50: 7.24
[4]
  inhibition: 80%

## CC(C)CC(=O)N(Cc1ccc2c(c1)OCCO2)c1cc(-c2nnn[nH]2)ccc1F
[1]
  pKi: 8.25

## CCC(=O)N(Cc1ccccc1)c1cccc(-c2nnn[nH]2)c1
[1]
  pKi: 5.74

## C#Cc1cccc(CN(C(C)=O)c2cc(-c3nnn[nH]3)ccc2F)c1
[1]
  pKi: 6.85

## CCC(=O)N(Cc1ccc2c(c1)OCCO2)c1cc(-c2nnn[nH]2)ccc1F
[1]
  pKi: 7.96

## CCC(=O)N(Cc1ccc2c(c1)OCO2)c1cccc(-c2nnn[nH]2)c1
[1]
  pKi: 6.89

## CCC(=O)N(Cc1ccc(S(C)(=O)=O)cc1)c1cccc(-c2nnn[nH]2)c1
[1]
  pKi: 7.16

## CC(C)C(=O)N(Cc1ccc(S(C)(=O)=O)cc1)c1cc(F)cc(-c2nnn[nH]2)c1
[1]
  pKi: 7.77

## CCCC(=O)N(Cc1ccc2c(c1)OCCO2)c1cccc(-c2nnn[nH]2)c1
[1]
  pKi: 7.92

## CCCCC(=O)N(Cc1cccs1)c1cccc(-c2nnn[nH]2)c1
[1]
  pKi: 6.21

## CCC(=O)N(Cc1ccc(S(C)(=O)=O)cc1)c1cc(F)cc(-c2nnn[nH]2)c1
[5]
  microsomal CLint at 1 µM: < 10 µL/min/mg
Cytochrome P450 2C8
  pIC50: 7.27
[1]
  pKi: 8.51
Cytochrome P450 2C19
  pIC50: 6.82
[6]
  microsomal CLint at 1 µM: < 10 µL/min/mg
Cytochrome P450 2C9
  pIC50: < 4.70

## CCCCC(=O)N(Cc1ccc2c(c1)OCCO2)c1cc(-c2nnn[nH]2)ccc1F
[1]
  pKi: 8.48

## CCC(=O)N(Cc1ccc2c(c1)OCCO2)c1cccc(-c2nnn[nH]2)c1
[1]
  pKi: 7.38

## CS(=O)(=O)c1ccc(CN(C(=O)c2cccnc2)c2cc(F)cc(-c3nnn[nH]3)c2)cc1
[1]
  pKi: 8.40

From ChEMBL document CHEMBL2034935, “Discovery of a Novel Series of CRTH2 (DP2) Receptor Antagonists Devoid of Carboxylic Acids” (ACS Med Chem Lett, 2011)
